Measured values taken from ChEMBL document CHEMBL1123054, “Synthesis and dopamine autoreceptor activity of a 5-(methylmercapto)methyl-substituted derivative of (+/-)-3-PPP (3-(3-hydroxyphenyl)-1-n-propylpiperidine)” (J Med Chem, 1985).

How the values were obtained:
[1] = test system: Mus musculus; assay: Dopa accumulation induced by GBL was measured in mouse after subcutaneous administration of 32 umol/kg of compound; format: functional
[2] = test system: Mus musculus; assay: Dose required to produce convulsions in mouse was determined after subcutaneously administration; format: functional
[3] = species on record: Rattus norvegicus; assay: In vitro inhibitory activity was determined against dopamine synthesis in rat striatal synaptosomes; conditions: Brain
[4] = species on record: Rattus norvegicus; assay: as above; conditions: Brain; remark: listed apart in the source

Row | IC50 [3] [µM] | Compound | Accumulation [1] [%] | Dose [2] [µM/kg] | IC50 [4] [µM]
1 | 45 | CCCN1C[C@H](CSC)C[C@H](c2cccc(O)c2)C1 | 89 | 100 | –
2 | – | CCCN1CCCC(c2cccc(O)c2)C1 (stereo not given) | 60 | – | 55
